This experiment has as its target T1, Human RORγ Ligand Binding Domain (RORγ-LBD) (Homo sapiens, UniProt P51449).
T1 construct: His6 with thrombin site) (N); made in house; host or cells: E. coli BL21(DE3), modified pET21a vector
T1 sequence (P51449 263-518): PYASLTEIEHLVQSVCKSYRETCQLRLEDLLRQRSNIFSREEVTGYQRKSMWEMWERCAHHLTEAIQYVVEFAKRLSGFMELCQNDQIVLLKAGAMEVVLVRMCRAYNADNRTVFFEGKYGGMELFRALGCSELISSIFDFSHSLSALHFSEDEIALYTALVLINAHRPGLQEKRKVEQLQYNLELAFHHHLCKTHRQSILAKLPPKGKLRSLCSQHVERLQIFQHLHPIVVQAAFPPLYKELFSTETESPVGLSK
In words: Dual Fluorescence Energy Transfer (FRET) assay: co-activator SRC1(2) peptide interaction with RORγ-LBD. Particulars: RORγ-LBD / SRC1(2) peptide, read-out: mean pIC50 (converted). The experiment is classed as biochemical. The source says: Dual Fluorescence Energy Transfer (FRET) Assay
This assay is based on the knowledge that nuclear receptors interact with cofactors (transcription factors) in a ligand dependent manner. RORγ is a typical nuclear receptor in that it has an AF2 domain in the ligand binding domain (LBD) which interacts with co-activators.
This assay measures ligand-mediated interaction of the co-activator peptide with the purified bacterial-expressed RORγ ligand binding domain (RORγ-LBD) to indirectly assess ligand binding. RORγ has a basal level of interaction with the co-activator SRC1(2) in the absence of ligand, thus, it is possible to find ligands that inhibit or enhance the RORγ/SRC1(2) interaction.
Human RORγ Ligand Binding Domain (RORγ-LBD) was expressed in E. coli strain BL21(DE3) as an amino-terminal polyhistidine tagged fusion protein. DNA encoding this recombinant protein was sub-cloned into a modified pET21a expression vector (Novagen).
Approximately 50 g E. coli cell pellet was resuspended in 300 mL of lysis buffer (30 mM imidazole pH 7.0 and 150 mM NaCl). Cells were lysed by sonication and cell debris was removed by centrifugation for 30 minutes at 20,000 g at 4° C. […] The clarified lysate was loaded onto a column (XK-26) packed with ProBond Nickel Chelating resin (InVitrogen), pre-equilibrated with 30 mM imidazole pH 7.0 and 150 mM NaCl. After washing to baseline absorbance with the equilibration buffer, the column was developed with a gradient from 30 to 500 mM imidazole pH 7.0. Column fractions containing the RORγ-LBD protein were pooled and concentrated to a volume of 5 mLs. The concentrated protein was loaded onto a Superdex 200 column pre-equilibrated with 20 mM Tris-Cl pH 7.2 and 200 mM NaCl. The fractions containing the desired RORγ-LBD protein were pooled together.
Purified RORγ-LBD was buffer exchanged by exhaustive dialysis [3 changes of at least 20 volumes (>8000×)] against PBS [100 mM NaPhosphate, pH 8 and 150 mM NaCl]. […] The modified RORγ-LBD was dialyzed against 2 buffer changes—TBS pH 8.0 containing 5 mM DTT, 2 mM EDTA and 2% sucrose—each at least 20 times of the volume. The modified protein was distributed into aliquots, frozen on dry ice and stored at −80° C. The biotinylated RORγ-LBD was subjected to mass spectrometric analysis to reveal the extent of modification by the biotinylation reagent.
Biotinylated SRC1(2) solution was prepared by adding an appropriate amount of biotinylated SRC1(2) from the 100 uM stock solution to a buffer containing 10 mM of freshly added DTT from solid to give a final concentration of 40 nM. An appropriate amount of Europium labeled Streptavidin was then added to the biotinylated SRC1(2) solution in a tube to give a final concentration of 10 nM. The tube was inverted gently and incubated for 15 minutes at room temperature. Twenty-fold excess biotin from the 10 mM stock solution was added and the tube was inverted gently and incubated for 10 minutes at room temperature.
Biotinylated RORγ-LBD solution was prepared by adding an appropriate amount of biotinylated RORγ-LBD from the stock solution to a buffer containing 10 mM of freshly added DTT from solid to give a final concentration of 40 nM. An appropriate amount of APC labeled Streptavidin was then added to the biotinylated RORγ-LBD solution in a tube to give a final concentration of 20 nM. The tube was inverted gently and incubated for 15 minutes at room temperature. Twenty-fold excess biotin from the 10 mM stock solution was then added and the tube was inverted gently and incubated for 10 minutes at room temperature.
The reaction mixtures were incubated for 5 minutes. […] The plates were incubated for 1 hour and then read on ViewLux in Lance mode for EU/APC.

The structures appear in SMILES notation.

Turning to `CCc1ccc(N(CC(C)C)S(=O)(=O)c2ccc([C@@H](O)CN3CCOCC3)c(CO)c2)cc1` [Example E126, N-(4-ethylphenyl)-4-(1-hydroxy-2-morpholinoethyl)-3-(hydroxymethyl)-N-isobutylbenzenesulfonamide], the IC50 is 63.1 nM.

(Values after US9428452B2, “Compounds” (Glaxo Group Limited, priority 2012, dated 2016).)
